The values below come from US20260223850A1, “SUBSTITUTED PYRROLIDONE COMPOUND, PREPARATION METHOD THEREFOR, COMPOSITION AND APPLICATION THEREOF” (QINGDAO KINGAGROOT CHEMICAL COMPOUND CO., LTD., priority 2023, published 2026).

Common to all, as to assay type: in vivo
The test system of data set [1] is Digitaria sanguinalis. Kind of data set: Seedling stage sealing experiment for water-seeding. To be noted: 120 g a.i./ha, 15 days, fresh weight control rate. In outline: (§1)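 Read-out: 0–9 damage level from fresh-weight control rate (9 = completely dead, 1 = under 10%, 0 = no effect), averaged over triplicates, taken 15 days after spraying. Doses were 120, 60, 30 and 15 g a.i./ha, acetone/water solution, spray tower.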

Data set [2] deals with Echinochloa crusgalli. The description is as above. To be noted: 120 g a.i./ha, 15 days, fresh weight control rate.
For data set [3], the system named is Echinochloa phyllopogon. The data set is described as above. The conditions noted are these: 120 g a.i./ha, 15 days, fresh weight control rate. A digest of the protocol: as §1
In data set [4] the test system is Huaidao (rice cultivar). Kind of data set: Seedling stage sealing experiment for water-seeding (crop safety). The conditions noted are these: 120 g a.i./ha, spray, seedling stage sealing for water-seeding, 15 days, fresh weight control rate. A digest of the protocol:
as §1

Setting [5] is: spray, seedling stage sealing for water-seeding.

On to `CCn1ncc(NC(=O)[C@H]2C(=O)N(C)C[C@@H]2c2cccc(C)c2)c1F` [523′], for which the “Digitaria sanguinalis activity level (growth control rate)” value (from here on “Digitaria sanguinalis activity level”) in data set [1] (setting [5]) came to 9. The “Echinochloa crusgalli activity level (growth control rate)” value (“Echinochloa crusgalli activity level” for short) in data set [2] (setting [5]) came out at 9. For the same compound, in data set [3] (setting [5]), the “Echinochloa phyllopogon activity level (growth control rate)” value (“Echinochloa phyllopogon activity level” below) was 6 (Level 6: growth control rate greater than or equal to 70% and less than 80%). Moreover, in data set [4], the “Huaidao (rice cultivar) plant damage level (growth control rate)” value (“Huaidao” for short) was 0.

Regarding `Cc1cccc([C@H]2CN(C)C(=O)[C@@H]2C(=O)Nc2cnn(C)c2C(F)F)c1` [524′], the “Digitaria sanguinalis activity level” value in data set [1] (setting [5]) came out at 9. Besides, the “Echinochloa crusgalli activity level” value in data set [2] (setting [5]) amounted to 9. Further, in data set [3] (setting [5]), the “Echinochloa phyllopogon activity level” value is listed as 9. Further, the “Huaidao” value in data set [4] is 2 (Level 2: growth control rate greater than or equal to 10% and less than 20%).

On to `CCn1ncc(NC(=O)[C@H]2C(=O)N(C)C[C@@H]2c2cccc(C)c2)c1C(F)(F)F` [525′], for which, in data set [1] (setting [5]), the “Digitaria sanguinalis activity level” value amounted to 9. In data set [2] (setting [5]), the “Echinochloa crusgalli activity level” value turned out to be 9. Further, in data set [3] (setting [5]), the “Echinochloa phyllopogon activity level” value is listed as 9. Further, in data set [4], the “Huaidao” value is 2 (Level 2: growth control rate greater than or equal to 10% and less than 20%).

For `Cc1cccc([C@H]2CN(C)C(=O)[C@@H]2C(=O)Nc2cnn(C(C)C)c2C(F)(F)F)c1` [526′], the “Digitaria sanguinalis activity level” value in data set [1] (setting [5]) is recorded as 9. In addition, the “Echinochloa crusgalli activity level” value in data set [2] (setting [5]) stood at 9. Besides, the “Echinochloa phyllopogon activity level” value in data set [3] (setting [5]) was 6 (Level 6: growth control rate greater than or equal to 70% and less than 80%). Moreover, the “Huaidao” value in data set [4] was determined as 0.

For `Cc1cccc([C@H]2CN(C)C(=O)[C@@H]2C(=O)Nc2cnn(C3CC3)c2C(F)(F)F)c1` [527′], in data set [1] (setting [5]), the “Digitaria sanguinalis activity level” value is reported as 9. Also, the “Echinochloa crusgalli activity level” value in data set [2] (setting [5]) is listed as 9. Also, the “Echinochloa phyllopogon activity level” value in data set [3] (setting [5]) was 6 (Level 6: growth control rate greater than or equal to 70% and less than 80%). Also, the “Huaidao” value in data set [4] stood at 0.

As to `Cc1cccc([C@H]2CN(C)C(=O)[C@@H]2C(=O)Nc2cnn(C)c2S(C)(=O)=O)c1` [531′], the “Digitaria sanguinalis activity level” value in data set [1] (setting [5]) turned out to be 9. The “Echinochloa crusgalli activity level” value in data set [2] (setting [5]) stood at 9. In addition, the “Echinochloa phyllopogon activity level” value in data set [3] (setting [5]) is 9. Further, the “Huaidao” value in data set [4] is 0.

On to `CO/N=C/c1c(NC(=O)[C@H]2C(=O)N(C)C[C@@H]2c2cccc(C)c2)cnn1C` [532′], for which the “Digitaria sanguinalis activity level” value in data set [1] (setting [5]) was found to be 9. In addition, in data set [2] (setting [5]), the “Echinochloa crusgalli activity level” value is 9. Also, the “Echinochloa phyllopogon activity level” value in data set [3] (setting [5]) is 6 (Level 6: growth control rate greater than or equal to 70% and less than 80%). Further, in data set [4], the “Huaidao” value is 0.

For the compound `CCn1ncc(NC(=O)[C@H]2C(=O)N(C)C[C@@H]2c2cccc(C(F)(F)F)c2)c1F` [533′], the “Digitaria sanguinalis activity level” value in data set [1] (setting [5]) came to 9. Moreover, the “Echinochloa crusgalli activity level” value in data set [2] (setting [5]) is 9. Moreover, in data set [3] (setting [5]), the “Echinochloa phyllopogon activity level” value came out at 9. Also, in data set [4], the “Huaidao” value is given as 0.

Regarding `CCn1ncc(NC(=O)[C@H]2C(=O)N(C)C[C@@H]2c2cccc(C(F)(F)F)c2)c1C(F)(F)F` [535′], the “Digitaria sanguinalis activity level” value in data set [1] (setting [5]) came to 9. Moreover, in data set [2] (setting [5]), the “Echinochloa crusgalli activity level” value is 9. Also, the “Echinochloa phyllopogon activity level” value in data set [3] (setting [5]) is 9. Further, the “Huaidao” value in data set [4] is listed as 0.

Turning to `CN1C[C@H](c2cccc(C(F)(F)F)c2)[C@@H](C(=O)Nc2cnn(C)c2[S+](C)[O-])C1=O` (some centres unmarked) [539′], the “Digitaria sanguinalis activity level” value in data set [1] (setting [5]) is 6 (Level 6: growth control rate greater than or equal to 70% and less than 80%). For the same compound, the “Echinochloa crusgalli activity level” value in data set [2] (setting [5]) was 9. The “Huaidao” value in data set [4] is reported as 0.

For the compound `COCn1ncc(NC(=O)[C@H]2C(=O)N(C)C[C@@H]2c2cccc(C(F)(F)F)c2)c1C1CC1` [540′], the “Digitaria sanguinalis activity level” value in data set [1] (setting [5]) is given as 9. The “Echinochloa crusgalli activity level” value in data set [2] (setting [5]) is listed as 9. For the same compound, the “Echinochloa phyllopogon activity level” value in data set [3] (setting [5]) is 9. Further, the “Huaidao” value in data set [4] stood at 0.

For `Cc1cc(C)cc([C@H]2CN(C)C(=O)[C@@H]2C(=O)Nc2cnn(C)c2C(F)F)c1` [546′], the “Digitaria sanguinalis activity level” value in data set [1] (setting [5]) came to 9. Also, in data set [2] (setting [5]), the “Echinochloa crusgalli activity level” value was determined as 9. The “Echinochloa phyllopogon activity level” value in data set [3] (setting [5]) is reported as 9. The “Huaidao” value in data set [4] is 0.

For `Cc1cc(C)cc([C@H]2CN(C)C(=O)[C@@H]2C(=O)Nc2cnn(C(C)C)c2C(F)(F)F)c1` [547′], the “Digitaria sanguinalis activity level” value in data set [1] (setting [5]) came to 9. Moreover, the “Echinochloa crusgalli activity level” value in data set [2] (setting [5]) is recorded as 9. In addition, the “Echinochloa phyllopogon activity level” value in data set [3] (setting [5]) is recorded as 9. Also, the “Huaidao” value in data set [4] turned out to be 0.

For the compound `Cc1cc(C)cc([C@H]2CN(C)C(=O)[C@@H]2C(=O)Nc2cnn(C3CC3)c2C(F)(F)F)c1` [548′], the “Digitaria sanguinalis activity level” value in data set [1] (setting [5]) is recorded as 9. Further, the “Echinochloa crusgalli activity level” value in data set [2] (setting [5]) is reported as 9. In addition, the “Echinochloa phyllopogon activity level” value in data set [3] (setting [5]) is 6 (Level 6: growth control rate greater than or equal to 70% and less than 80%). Besides, the “Huaidao” value in data set [4] is on record as 0.

In the case of `Cc1cc(C)cc([C@H]2CN(C)C(=O)[C@@H]2C(=O)Nc2cnn(C)c2[S+](C)[O-])c1` (some centres unmarked) [552′], in data set [1] (setting [5]), the “Digitaria sanguinalis activity level” value is 9. Moreover, the “Echinochloa crusgalli activity level” value in data set [2] (setting [5]) is listed as 9. Also, the “Huaidao” value in data set [4] is 0.

Turning to `COCc1c(NC(=O)[C@H]2C(=O)N(C)C[C@@H]2c2cc(C)cc(C)c2)cnn1C` [553′], the “Digitaria sanguinalis activity level” value in data set [1] (setting [5]) is recorded as 9. The “Echinochloa crusgalli activity level” value in data set [2] (setting [5]) was 9. Also, the “Huaidao” value in data set [4] is 2 (Level 2: growth control rate greater than or equal to 10% and less than 20%).

For `CN1C[C@H](c2cc(F)cc(Cl)c2)[C@@H](C(=O)Nc2cnn(C(F)F)c2Cl)C1=O` [554′], the “Digitaria sanguinalis activity level” value in data set [1] (setting [5]) was 9. The “Echinochloa crusgalli activity level” value in data set [2] (setting [5]) is 9. The “Echinochloa phyllopogon activity level” value in data set [3] (setting [5]) was 9. In addition, the “Huaidao” value in data set [4] was found to be 0.

For the compound `CN1C[C@H](c2cc(F)cc(Cl)c2)[C@@H](C(=O)Nc2cnn(C)c2C2CC2)C1=O` [555′], the “Digitaria sanguinalis activity level” value in data set [1] (setting [5]) stood at 9. Further, the “Echinochloa crusgalli activity level” value in data set [2] (setting [5]) is given as 9. For the same compound, the “Echinochloa phyllopogon activity level” value in data set [3] (setting [5]) was determined as 9. Further, the “Huaidao” value in data set [4] turned out to be 0.

As to `CN1CC(c2cccc(C(F)(F)F)c2)C(C(=O)Nc2cnn(C)c2Cl)C1=O` (centres unmarked) [Compound 1], in data set [1] (seedling stage sealing), the “Digitaria sanguinalis activity level” value is on record as 9. The “Echinochloa crusgalli activity level” value in data set [2] (seedling stage sealing) is 9. In addition, the “Echinochloa phyllopogon activity level” value in data set [3] (seedling stage sealing) is on record as 9.

Turning to `CN1CC(c2cccc(F)c2)C(C(=O)Nc2cnn(C)c2Cl)C1=O` (centres unmarked) [Compound 15], the “Digitaria sanguinalis activity level” value in data set [1] (seedling stage sealing) was 9. Moreover, in data set [2] (seedling stage sealing), the “Echinochloa crusgalli activity level” value is given as 9. For the same compound, the “Echinochloa phyllopogon activity level” value in data set [3] (seedling stage sealing) is 6 (Level 6: growth control rate greater than or equal to 70% and less than 80%).

As to `C=CCOc1cccc(C2CN(C)C(=O)C2C(=O)Nc2cnn(C)c2Cl)c1` (centres unmarked) [Compound 30], in data set [1] (seedling stage sealing), the “Digitaria sanguinalis activity level” value came to 9. Further, in data set [2] (seedling stage sealing), the “Echinochloa crusgalli activity level” value is on record as 9. The “Echinochloa phyllopogon activity level” value in data set [3] (seedling stage sealing) was 9.

Regarding `CN1CC(c2ccc(F)c(F)c2)C(C(=O)Nc2cnn(C)c2Cl)C1=O` (centres unmarked) [Compound 116], the “Digitaria sanguinalis activity level” value in data set [1] (seedling stage sealing) stood at 9. Moreover, the “Echinochloa crusgalli activity level” value in data set [2] (seedling stage sealing) was 7 (Level 7: growth control rate greater than or equal to 80% and less than 90%). Also, in data set [3] (seedling stage sealing), the “Echinochloa phyllopogon activity level” value was 6 (Level 6: growth control rate greater than or equal to 70% and less than 80%).

Consider `CN1CC(c2cccc(C(F)(F)F)c2)C(C(=O)Nc2cnn(C(F)F)c2)C1=O` (centres unmarked) [Compound 159], for which the “Digitaria sanguinalis activity level” value in data set [1] (seedling stage sealing) worked out at 9. The “Echinochloa crusgalli activity level” value in data set [2] (seedling stage sealing) was 7 (Level 7: growth control rate greater than or equal to 80% and less than 90%). In addition, the “Echinochloa phyllopogon activity level” value in data set [3] (seedling stage sealing) is 6 (Level 6: growth control rate greater than or equal to 70% and less than 80%).

For `CN1CC(c2ccc(C(F)(F)F)cc2)C(C(=O)Nc2cnn(C)c2Cl)C1=O` (centres unmarked) [Compound 249], the “Digitaria sanguinalis activity level” value in data set [1] (seedling stage sealing) is recorded as 9. Further, the “Echinochloa crusgalli activity level” value in data set [2] (seedling stage sealing) was 8 (Level 8: growth control rate greater than or equal to 90% and less than 100%). In addition, the “Echinochloa phyllopogon activity level” value in data set [3] (seedling stage sealing) was 8 (Level 8: growth control rate greater than or equal to 90% and less than 100%).

`CCn1cc(NC(=O)C2C(=O)N(C)CC2c2cccc(C(F)(F)F)c2)cn1` (centres unmarked) [Compound 456]: the “Digitaria sanguinalis activity level” value in data set [1] (setting [5]) is listed as 9. The “Echinochloa crusgalli activity level” value in data set [2] (setting [5]) is 7 (Level 7: growth control rate greater than or equal to 80% and less than 90%). In addition, the “Huaidao” value in data set [4] was found to be 0.

For the compound `CN1CC(c2cccc(C(F)(F)F)c2)C(C(=O)Nc2cn(C)nc2C(F)F)C1=O` (centres unmarked) [Compound 457], in data set [1] (setting [5]), the “Digitaria sanguinalis activity level” value turned out to be 9. In addition, the “Huaidao” value in data set [4] was determined as 0.

As to `CN1CC(c2ccc(C(F)(F)F)cc2)C(C(=O)Nc2c[nH]nc2Cl)C1=O` (centres unmarked) [Control compound A, reference compound], in data set [1] (setting [5]), the “Digitaria sanguinalis activity level” value worked out at 0. For the same compound, the “Echinochloa crusgalli activity level” value in data set [2] (setting [5]) is 0. Moreover, the “Echinochloa phyllopogon activity level” value in data set [3] (setting [5]) came out at 0.
